Earlier results on two substances are cited in patent US20040265272A1, “Mammalian cell-infecting virus vector encoding epitope-bound beta2m and utilization thereof” (priority 2001, published 2004).

This data set relates to CTL. Particulars: HLA-A24- or HLA-A26-restricted peptide; cancer patients.

Take “SART-1 690-698: HLA-A24-restricted peptide of the SART-1 antigen (EYRGFTQDF; UniProt O43290 690-698, looked up, fragment)”: the CTL induction entry is on record as “strongly induced CTL”.

On to “SART-1 736-744: HLA-A26-restricted peptide of the SART-1 antigen (KGSGKMKTE; UniProt O43290 736-744, looked up, fragment)”, for which the CTL induction entry is “induced CTL in cancer patients with HLA-A2601, -A2602, or -A2603”.
